For assay [1], the target named is IRAK1 (Homo sapiens, UniProt P51617). The assay can be described thus: IRAK1 ADP-Glo Kinase assay. To be noted: 8 pt curve. The format is biochemical. In general terms: In ADP-Glo the light output rises with the ADP produced.
In assay [2] the target is T1, IRAK4 (Homo sapiens, UniProt Q9NWZ3).
T1 construct: purchased Signalchem I12-10G-20
T1 sequence (Q9NWZ3 1-460): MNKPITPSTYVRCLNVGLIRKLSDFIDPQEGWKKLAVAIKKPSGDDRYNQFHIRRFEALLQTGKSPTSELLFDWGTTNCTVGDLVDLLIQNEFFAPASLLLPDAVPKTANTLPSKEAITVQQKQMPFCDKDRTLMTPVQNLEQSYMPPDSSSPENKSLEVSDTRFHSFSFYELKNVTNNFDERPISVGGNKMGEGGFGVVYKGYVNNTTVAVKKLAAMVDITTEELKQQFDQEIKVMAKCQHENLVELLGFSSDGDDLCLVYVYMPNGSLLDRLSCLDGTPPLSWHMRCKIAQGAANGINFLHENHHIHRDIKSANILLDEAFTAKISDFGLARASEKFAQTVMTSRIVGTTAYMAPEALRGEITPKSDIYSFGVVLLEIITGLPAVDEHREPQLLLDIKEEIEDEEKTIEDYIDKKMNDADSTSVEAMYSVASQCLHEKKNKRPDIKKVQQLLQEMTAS
The assay can be described thus: IRAK4 ADP-Glo assay. The format is biochemical. Particulars: 8 pt curve; read-out: IRAK4 ADP-Glo Kinase, 8 pt. On the procedure:
IRAK4 Kinase Enzyme (Signalchem, I12-10G-20); 0.1M DTT (Signalchem, D86-09B); MBP Substrate (Signalchem, M42-51N); ADP Glo (Promega, V9101); 1M MgCl2 (Teknova, M03304); 1M Tris-HCl pH7.4 (Teknova, T1074); BSA (Sigma (A3059); Distilled H2O
Wallac Victor2 1420 Multilabel Counter
The ADP-Glo™ reagents were thawed at ambient temperature. The Kinase Detection Reagent was prepared by mixing kinase detection buffer with the lyophilized kinase detection substrate, and set aside.
A stock volume of 5× Reaction Kinase Buffer was made with a final concentration of 100 mM MgCl2, 200 mM Tris-HCl, and 0.5 mg/ml of BSA, in distilled H2O with a final pH7.4. A 2× working stock volume of Reaction Kinase Buffer was made containing a final concentration of […].
The components of IRAK4 Enzyme were thawed on ice. Diluted IRAK4 in 1× Kinase Reaction Buffer (diluted from 2× buffer) was prepared at […]. A […] working stock ATP Assay Solution was prepared in 1× Kinase Reaction Buffer (diluted from 2× buffer).
The compound was diluted in DMSO from 250 µM in 4-fold series dilutions for 8 points. Then diluted 1:5 in 2× Reaction Buffer in a 96 well plate. 1.01 was transferred to a 384 well plate in duplicate. […] 1 μl of 1 mg/ml stock solution of MBP substrate was added NOTE: MBP can be combined with ATP mix with equal volume and then added at 2 d/well. Final reaction volume was 5 μl.
The plate was centrifuged and the reaction mixture was incubated at room temperature for 60 minutes or at 30° C. for 30 minutes.
The reaction was terminated and the remaining ATP was depleted by adding 5 μl of ADP-Glo™ Reagent. The 384-well plate was centrifuged and then the reaction mixture was incubated for another 40 minutes at ambient temperature.
10 μl of the Kinase Detection Reagent was added. The plate was centrifuged and then the reaction mixture was incubated for another 30 minutes at ambient temperature.
The 384-well reaction plate was read using the WALLAC plate reader (Luminescence 0.1s).

For assay [3], the system named is IL23-p19. The assay can be described thus: LPS induced IL23p19 in THP-1 cells (IFNγ primed), sandwich ELISA. The assay is classed as cell-based. Particulars: Homo sapiens; THP-1 cells primed with IFNγ, LPS 1 μg/mL, 10 pt curve; read-out: IL23-p19 ELISA, THP1-IFNy, LPS, 10 pt. The text has this:
LPS Induced IL23p19 in THP-1 Cells (with IFNγ Primed) Assay
THP-1 Cells (ATCC, Cat #TIB-202), Dimethyl Sulfoxide (DMSO) (Sigma-Aldrich, Cat #D2650), RPMI 1640 (Cellgro, Cat #10-040-CM), Fetal Bovine Serum (Sigma, Cat #F4135), Albumin From Bovine Serum (BSA) (Sigma-Aldrich, Cat #A7906), LPS (Serotype K-235, Sigma, Product Number L 2143), IFNγ (Peprotech, Cat #300-02), Capture antibody: Human IL-23p19 ELISA (e-Bioscience, Cat. #14-7238-85), Detection antibody: Primary Mouse Biotinylated anti-human IL-12(p40/p70) (e-Bioscience, Cat. #13-7129-85), Secondary HRP-conjugated Streptavidin (R&D Systems, Cat #DY998), 1×PBST Washing Buffer (PBS-Tween tablet) (VWR International, Cat #80058-558), ELISA Blocking Buffer (PBS with 1% BSA), ELISA Dilution Buffer (PBS with 1% BSA), 384 Well Flat-Bottom, MaxiSorp Black Immuno Plates (Thermo Scientific, Cat #12-565-346), 384 Well Flat-Bottom, White Tissue Culture Plates (Thermo Scientific, Cat #12-565-343), Super Signal ELISA Pico Chemiluminescent Substrate (Thermo Scientific, Cat #37070), Cell Titer Glo reagent (Promega, Cat #G7573), Positive control, IKK2VI inhibitor (Calbiochem, Cat #401483), AquaMax 4000 plate washer (Molecular Devices), Luminometer, Wallac Victor2 1420 Multilabel Counter.
On day 1, 50K/well THP-1 cells were seeded and primed with IFNγ (50 ng/mL) in 384-well plates for about 18 hours in RPMI media with 10% FBS. On day 2, the compound was serially diluted in DMSO from 5 mM in 3-fold dilutions, and then diluted 1:125 in RPMI media with 10% FBS. 50 μL/well 2× compound was added to 50 μL/well THP-1 cells (with IFNγ primed) in duplicate in 384 well tissue culture plates. The cells were pre-incubated with compound for 1 hour at 37° C., 5% CO2 before addition of 10 μL/well 11×LPS to give a final concentration of 1 μg/mL LPS. Day 3, after stimulation for 18 hours at 37° C., 5% CO2, the assay plate was centrifuged and 70 μL/well supernatant was harvested. IL-23p19 protein in 70 μL/well of supernatant was measured by sandwich ELISA, and 25 μl/well Cell Titer Glo reagent was added to the remaining cells to measure compound toxicity.
Human IL-23p19 Sandwich ELISA:
Maxisorp immuno ELISA plates were pre-coated with 25 μL/well of anti-IL-23p19 capture antibody (2.5 ug/mL) in PBS overnight at room temperature. After washing with 1×PBST, the plates were blocked using 100 μL/well of 1% BSA in PBS for 2 hours at room temperature. The plates were washed three times with 1×PBST and 70 μL/well supernatant were added. The plates were incubated at room temperature for 2 hours with shaking and washed three times with 1×PBST. 25 μL/well of biotin labeled anti-IL-12(p40/p70) detection antibody (100 ng/mL) in PBS with 1% BSA was added and the plates were incubated at room temperature for 2 hours with shaking. After washing three times with 1×PBST, 25 μL/well of streptavidin-HRP (1:200) in PBS with 1% BSA was added and the plates were incubated at room temperature for 20 minutes with shaking. The plates were washed three times with 1×PBST and 25 μL/well of Super Signal ELISA Pico Chemiluminescent Substrate were added. The plates were read with a luminometer, and the chemiluminescence values were entered into Athena (Rigel) for curve fitting, EC50 calculation, and database storage.

The test system of assay [4] is TNFa. The assay can be described thus: TNFa ELISA, dendritic cells, Gardiquimod stimulated. The assay is classed as cell-based. Particulars: Homo sapiens, Dendritic cell, 10 pt curve. On the technique in general: ELISA stands for enzyme-linked immunosorbent assay.
The test system of assay [5] is TNFa. The assay can be described thus: TNFa ELISA, PBMC, Resiquimod (R848) stimulated. To be noted: 10 pt curve. The assay is classed as cell-based.

Structures are written as SMILES.

Chain of IRAK1 (P51617 whole entry): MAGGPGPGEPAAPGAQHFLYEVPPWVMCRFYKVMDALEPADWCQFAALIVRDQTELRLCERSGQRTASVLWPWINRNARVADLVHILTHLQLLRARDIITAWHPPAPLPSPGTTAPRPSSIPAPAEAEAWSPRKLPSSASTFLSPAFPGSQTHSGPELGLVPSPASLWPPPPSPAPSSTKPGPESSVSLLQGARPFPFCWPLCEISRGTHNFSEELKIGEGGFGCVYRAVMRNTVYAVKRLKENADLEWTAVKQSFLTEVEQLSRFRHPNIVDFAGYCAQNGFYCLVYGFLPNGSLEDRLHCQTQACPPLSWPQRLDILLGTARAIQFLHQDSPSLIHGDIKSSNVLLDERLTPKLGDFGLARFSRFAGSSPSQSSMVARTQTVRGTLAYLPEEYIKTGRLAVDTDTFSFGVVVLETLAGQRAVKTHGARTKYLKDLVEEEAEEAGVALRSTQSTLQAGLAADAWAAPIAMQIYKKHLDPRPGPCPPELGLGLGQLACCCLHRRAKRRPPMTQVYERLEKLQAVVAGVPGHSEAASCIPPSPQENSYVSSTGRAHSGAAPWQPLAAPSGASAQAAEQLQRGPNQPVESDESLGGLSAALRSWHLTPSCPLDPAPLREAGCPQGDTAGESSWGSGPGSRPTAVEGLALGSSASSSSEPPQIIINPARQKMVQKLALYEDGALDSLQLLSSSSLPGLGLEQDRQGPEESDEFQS

With `O=C1CC[C@@H](COc2nccc3cc4c(=O)[nH]cc(CC(F)F)c4cc23)N1` [I-17, (S)-4-(2,2-difluoroethyl)-6-((5-oxopyrrolidin-2-yl)methoxy)pyrido[3,4-g]isoquinolin-1(2H)-one], the IC50 in assay [1] came out at 10.6 µM; in assay [2] it was 0.0214 µM. In addition, the EC50 in assay [3] came to 16.1 µM; in assay [4], 0.607 µM; in assay [5], 0.36 µM.
For the molecule `O=C1CC[C@@H](COc2nccc3cc4c(=O)[nH]cc(C5CC5)c4cc23)N1` [I-14, (S)-4-cyclopropyl-6-((5-oxopyrrolidin-2-yl)methoxy)pyrido[3,4-g]isoquinolin-1(2H)-one], the IC50 in assay [1] turned out to be 4.77 µM; in assay [2] it was 0.0049 µM. The EC50 came out at 0.956 µM in assay [3], 0.196 µM in assay [4] and 0.187 µM in assay [5].
Regarding `O=C1CC[C@@H](COc2nccc3cc4c(=O)[nH]cc(C#CCO)c4cc23)N1` [I-21, (S)-4-(3-hydroxyprop-1-yn-1-yl)-6-((5-oxopyrrolidin-2-yl)methoxy)pyrido[3,4-g]isoquinolin-1(2H)-one], the IC50 was 0.777 µM in assay [1] and 0.0058 µM in assay [2]. Further, the results for the EC50 in assay [3], in assay [4] and in assay [5] were 0.778 µM, 1.5 µM and 0.422 µM, respectively.
As for `CC#Cc1c[nH]c(=O)c2cc3ccnc(OC[C@@H]4CCC(=O)N4)c3cc12` [I-24, (S)-6-((5-oxopyrrolidin-2-yl)methoxy)-4-(prop-1-yn-1-yl)pyrido[3,4-g]isoquinolin-1(2H)-one], the IC50 in assay [2] was found to be 0.0557 µM. Further, the EC50 in assay [3] turned out to be 0.377 µM; in assay [4], 0.316 µM; in assay [5], 0.283 µM.
For `CC(C)c1c[nH]c(=O)c2cc3ccnc(OC[C@@H]4CCC(=O)N4)c3cc12` [I-15, (S)-4-isopropyl-6-((5-oxopyrrolidin-2-yl)methoxy)pyrido[3,4-g]isoquinolin-1(2H)-one], the values for the IC50 in assay [1] and in assay [2] were 8.37 µM and 0.0062 µM, respectively. Moreover, the EC50 was 0.501 µM in assay [3] and 0.0683 µM in assay [5].
For `CC(C)(O)c1c[nH]c(=O)c2cc3ccnc(OC[C@@H]4CCC(=O)N4)c3cc12` [I-20, (S)-4-(2-hydroxypropan-2-yl)-6-((5-oxopyrrolidin-2-yl)methoxy)pyrido[3,4-g]isoquinolin-1(2H)-one], the IC50 in assay [2] is 0.303 µM. Further, the EC50 in assay [3] was determined as 38.7 µM; in assay [5], 6.97 µM.
In the case of `O=C1CC[C@@H](COc2nccc3cc4c(=O)[nH]cc(C(F)(F)F)c4cc23)N1` [I-30, (S)-6-((5-oxopyrrolidin-2-yl)methoxy)-4-(trifluoromethyl)pyrido[3,4-g]isoquinolin-1(2H)-one], the IC50 in assay [2] was found to be 0.212 µM. In addition, the EC50 came to 2.26 µM in assay [3], 18.3 µM in assay [4] and 2.02 µM in assay [5].
Consider `O=C1CC[C@@H](COc2nccc3cc4c(=O)[nH]cc(C5CCCC5)c4cc23)N1` [I-13, (S)-4-cyclopentyl-6-((5-oxopyrrolidin-2-yl)methoxy)pyrido[3,4-g]isoquinolin-1(2H)-one], for which the figures for the IC50 in assay [1] and in assay [2] were 6.26 µM and 0.0559 µM, respectively. The figures for the EC50 in assay [3] and in assay [5] were 8.47 µM and 0.303 µM, respectively.
For the molecule `Cc1c[nH]c(=O)c2cc3ccnc(OC[C@@H]4CCC(=O)N4)c3cc12` [I-25, (S)-4-methyl-6-((5-oxopyrrolidin-2-yl)methoxy)pyrido[3,4-g]isoquinolin-1(2H)-one], in assay [2], the IC50 stood at 0.0692 µM. In addition, the values for the EC50 in assay [3], in assay [4] and in assay [5] were 0.0796 µM, 6.22 µM and 0.393 µM, respectively.
For the molecule `O=C1CC[C@@H](COc2nccc3cc4c(=O)[nH]cc(C5CCC5)c4cc23)N1` [I-12, (S)-4-cyclobutyl-6-((5-oxopyrrolidin-2-yl)methoxy)pyrido[3,4-g]isoquinolin-1(2H)-one], the figures for the IC50 in assay [1] and in assay [2] were 7.86 µM and 0.0396 µM, respectively. The results for the EC50 in assay [4] and in assay [5] were 11.7 µM and 0.203 µM, respectively.
For `C#Cc1c[nH]c(=O)c2cc3ccnc(OC[C@@H]4CCC(=O)N4)c3cc12` [I-18, (S)-4-ethynyl-6-((5-oxopyrrolidin-2-yl)methoxy)pyrido[3,4-g]isoquinolin-1(2H)-one], the IC50 in assay [1] is 12 µM; in assay [2], 0.0144 µM. In addition, the EC50 is 0.358 µM in assay [4] and 0.337 µM in assay [5].
On to `CC[C@@H]1[C@H](F)C(=O)N[C@@H]1COc1nccc2cc3c(=O)[nH]cc(C)c3cc12` [I-45, 6-(((2S,3S,4S)-3-ethyl-4-fluoro-5-oxopyrrolidin-2-yl)methoxy)-4-methylpyrido[3,4-g]isoquinolin-1(2H)-one], for which the IC50 in assay [1] came out at 0.018 µM; in assay [2], 0.0055 µM. The figures for the EC50 in assay [4] and in assay [5] were 0.0034 µM and 0.0027 µM, respectively.
On the same counts, the results for `CC[C@@H]1[C@H](F)C(=O)N[C@@H]1COc1nccc2cc3c(=O)[nH]ccc3cc12` [I-46, 6-(((2S,3S,4S)-3-ethyl-4-fluoro-5-oxopyrrolidin-2-yl)methoxy)pyrido[3,4-g]isoquinolin-1(2H)-one] are 1.12 µM, 0.0065 µM, 0.239 µM and 0.295 µM.
